Reference: PubChem BioAssay AID2060625 (Molecular Pharmacology Branch, DTP, NCI, 2025)

System: 186277-243-T-J2-PDC spheroids with HUVEC/MSC, viability
Experiment: Anticancer human tumor 186277-243-T-J2-PDC patient-derived colon adenocarcinoma cell line growth inhibition [CLK]
Settings: for IC50: curve of first compound; for viability, T/C: stronger effect = lower value
Summary of the method: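 Multi-cell-type spheroids combined patient-derived tumor cells with HUVEC endothelial cells and human mesenchymal stem cells. Paired agents were dosed in half-log steps down from about clinical Cmax, or from 10 microM where Cmax was unknown.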

[1] = second compound 0.0316 µM, first compound 0.0316 µM
[2] = second compound 0.0316 µM, first compound 0.1 µM
[3] = second compound 0.1 µM, first compound 0.0316 µM
[4] = second compound 0.1 µM, first compound 0.1 µM
[5] = second compound 0.316 µM, first compound 0.0316 µM
[6] = second compound 0.316 µM, first compound 0.1 µM
[7] = second compound 1 µM, first compound 0.0316 µM
[8] = second compound 1 µM, first compound 0.1 µM
[9] = second compound 3.16 µM, first compound 0.0316 µM
[10] = second compound 3.16 µM, first compound 0.1 µM
[11] = second compound 10 µM, first compound 0.0316 µM
[12] = second compound 10 µM, first compound 0.1 µM
[13] = second compound 0.0316 µM, first compound 0.316 µM
[14] = second compound 0.0316 µM, first compound 1 µM
[15] = second compound 0.0316 µM, first compound 3.16 µM
[16] = second compound 0.0316 µM, first compound 10 µM
[17] = second compound 0.1 µM, first compound 0.316 µM
[18] = second compound 0.1 µM, first compound 1 µM
[19] = second compound 0.1 µM, first compound 3.16 µM
[20] = second compound 0.1 µM, first compound 10 µM
[21] = second compound 0.316 µM, first compound 0.316 µM
[22] = second compound 0.316 µM, first compound 1 µM
[23] = second compound 0.316 µM, first compound 3.16 µM
[24] = second compound 0.316 µM, first compound 10 µM
[25] = second compound 1 µM, first compound 0.316 µM
[26] = second compound 1 µM, first compound 1 µM
[27] = second compound 1 µM, first compound 3.16 µM
[28] = second compound 1 µM, first compound 10 µM
[29] = second compound 3.16 µM, first compound 0.316 µM
[30] = second compound 3.16 µM, first compound 1 µM
[31] = second compound 3.16 µM, first compound 3.16 µM
[32] = second compound 3.16 µM, first compound 10 µM
[33] = second compound 10 µM, first compound 0.316 µM
[34] = second compound 10 µM, first compound 1 µM
[35] = second compound 10 µM, first compound 3.16 µM
[36] = second compound 10 µM, first compound 10 µM
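Further: compound exposure lasted seven days before readout.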
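Wherever viability, T/C is given: 100% = DMSO vehicle control wells.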

Cn1ncnc1[C@H]1c2n[nH]c(=O)c3cc(F)cc(c23)N[C@@H]1c1ccc(F)cc1 + CN1CCN(c2cc(C(=O)Nc3cc4cc(-c5cnn(C)c5)ccc4cn3)ccn2)CC1
IC50 (second compound 0.0316 µM): > 100 nM
IC50 (second compound 0.1 µM): > 100 nM
IC50 (second compound 0.316 µM): < 0.316 nM
IC50 (second compound 1 µM): < 0.316 nM
IC50 (second compound 3.16 µM): < 0.316 nM
IC50 (second compound 10 µM): < 0.316 nM
viability, T/C (second compound 0.0316 µM, first compound 0.000316 µM): 86.9%
viability, T/C (second compound 0.0316 µM, first compound 0.001 µM): 104%
viability, T/C (second compound 0.0316 µM, first compound 0.00316 µM): 108%
viability, T/C (second compound 0.0316 µM, first compound 0.01 µM): 114%
viability, T/C [1]: 95.1%
viability, T/C [2]: 113%
viability, T/C (second compound 0.1 µM, first compound 0.000316 µM): 73.9%
viability, T/C (second compound 0.1 µM, first compound 0.001 µM): 75.6%
viability, T/C (second compound 0.1 µM, first compound 0.00316 µM): 69%
viability, T/C (second compound 0.1 µM, first compound 0.01 µM): 82.6%
viability, T/C [3]: 69.8%
viability, T/C [4]: 58.6%
viability, T/C (second compound 0.316 µM, first compound 0.000316 µM): 20.9%
viability, T/C (second compound 0.316 µM, first compound 0.001 µM): 19.2%
viability, T/C (second compound 0.316 µM, first compound 0.00316 µM): 22.7%
viability, T/C (second compound 0.316 µM, first compound 0.01 µM): 20%
viability, T/C [5]: 21.9%
viability, T/C [6]: 19.8%
viability, T/C (second compound 1 µM, first compound 0.000316 µM): 2.81%
viability, T/C (second compound 1 µM, first compound 0.001 µM): 0.25%
viability, T/C (second compound 1 µM, first compound 0.00316 µM): 0.86%
viability, T/C (second compound 1 µM, first compound 0.01 µM): 2.93%
viability, T/C [7]: 1.61%
viability, T/C [8]: 0.53%
viability, T/C (second compound 3.16 µM, first compound 0.000316 µM): 2.49%
viability, T/C (second compound 3.16 µM, first compound 0.001 µM): 0.69%
viability, T/C (second compound 3.16 µM, first compound 0.00316 µM): 1.36%
viability, T/C (second compound 3.16 µM, first compound 0.01 µM): 1.46%
viability, T/C [9]: 2.26%
viability, T/C [10]: 0.62%
viability, T/C (second compound 10 µM, first compound 0.000316 µM): 1.78%
viability, T/C (second compound 10 µM, first compound 0.001 µM): 0.48%
viability, T/C (second compound 10 µM, first compound 0.00316 µM): 0.42%
viability, T/C (second compound 10 µM, first compound 0.01 µM): 0.58%
viability, T/C [11]: 0.53%
viability, T/C [12]: 0.46%

Nc1ccn(C2OC(CO)C(O)C2(F)F)c(=O)n1 (stereo unspecified) + CN1CCN(c2cc(C(=O)Nc3cc4cc(-c5cnn(C)c5)ccc4cn3)ccn2)CC1
IC50 (second compound 0.0316 µM): < 31.6 nM
IC50 (second compound 0.1 µM): < 31.6 nM
IC50 (second compound 0.316 µM): < 31.6 nM
IC50 (second compound 1 µM): < 31.6 nM
IC50 (second compound 3.16 µM): < 31.6 nM
IC50 (second compound 10 µM): < 31.6 nM
viability, T/C [1]: 14%
viability, T/C [2]: 14.4%
viability, T/C [13]: 13.2%
viability, T/C [14]: 15.4%
viability, T/C [15]: 15.7%
viability, T/C [16]: 15%
viability, T/C [3]: 14.1%
viability, T/C [4]: 15.4%
viability, T/C [17]: 13.7%
viability, T/C [18]: 15.4%
viability, T/C [19]: 13.6%
viability, T/C [20]: 13.5%
viability, T/C [5]: 14.8%
viability, T/C [6]: 12.4%
viability, T/C [21]: 13.9%
viability, T/C [22]: 12%
viability, T/C [23]: 8.4%
viability, T/C [24]: 7.19%
viability, T/C [7]: 1.75%
viability, T/C [8]: 1.77%
viability, T/C [25]: 1.48%
viability, T/C [26]: 0.16%
viability, T/C [27]: 0.64%
viability, T/C [28]: 0.64%
viability, T/C [9]: 1.77%
viability, T/C [10]: 1.46%
viability, T/C [29]: 0.93%
viability, T/C [30]: 4.16%
viability, T/C [31]: 2.01%
viability, T/C [32]: 0.57%
viability, T/C [11]: 0.82%
viability, T/C [12]: 0.83%
viability, T/C [33]: 0.9%
viability, T/C [34]: 1.08%
viability, T/C [35]: 0.95%
viability, T/C [36]: 0.6%

O=c1[nH]cc(F)c(=O)[nH]1 + CN1CCN(c2cc(C(=O)Nc3cc4cc(-c5cnn(C)c5)ccc4cn3)ccn2)CC1
IC50 (second compound 0.0316 µM): > 10000 nM
IC50 (second compound 0.1 µM): 6160 nM
IC50 (second compound 0.316 µM): < 31.6 nM
IC50 (second compound 1 µM): < 31.6 nM
IC50 (second compound 3.16 µM): < 31.6 nM
IC50 (second compound 10 µM): < 31.6 nM
viability, T/C [1]: 86.8%
viability, T/C [2]: 85.2%
viability, T/C [13]: 101%
viability, T/C [14]: 86.2%
viability, T/C [15]: 73%
viability, T/C [16]: 56.3%
viability, T/C [3]: 81.4%
viability, T/C [4]: 76.6%
viability, T/C [17]: 87%
viability, T/C [18]: 82.6%
viability, T/C [19]: 62.6%
viability, T/C [20]: 40.8%
viability, T/C [5]: 21.7%
viability, T/C [6]: 19.2%
viability, T/C [21]: 22.6%
viability, T/C [22]: 23.1%
viability, T/C [23]: 23.5%
viability, T/C [24]: 21%
viability, T/C [7]: 1.33%
viability, T/C [8]: 0.66%
viability, T/C [25]: 0.91%
viability, T/C [26]: 1.78%
viability, T/C [27]: 1.34%
viability, T/C [28]: 1.32%
viability, T/C [9]: 3.16%
viability, T/C [10]: 0.66%
viability, T/C [29]: 1.53%
viability, T/C [30]: 0.93%
viability, T/C [31]: 2.49%
viability, T/C [32]: 0.81%
viability, T/C [11]: 3.05%
viability, T/C [12]: 0.66%
viability, T/C [33]: 0.92%
viability, T/C [34]: 1.07%
viability, T/C [35]: 0.96%
viability, T/C [36]: 0.38%
